According to patent US7792665B2, “Method for designing a compound based on the three dimensional structure of phosphoinositide dependent protein kinase 1 (PDK1)” (Medical Research Council, priority 2002, dated 2010):
Residue numbers refer to the chain shown, from its start. Where a SMILES comes first, the peptide text is derived from it. [ ]: non-standard residue; d: D form. pT = C[C@@H](OP(=O)(O)O)[C@H](N)C(=O)O

Tests used:
[1] = biological target: T1, PDK1[R131A] (Homo sapiens, UniProt O15530, R131A); test: PDK1 catalytic activity towards T308tide, activation by peptides, PDK1[R131A]; assay type: biochemical
T1 construct: GST (N); made in house; host or cells: human embryonic kidney 293 cells (pEBG2T vector)
T1 sequence (O15530 1-556 R131A): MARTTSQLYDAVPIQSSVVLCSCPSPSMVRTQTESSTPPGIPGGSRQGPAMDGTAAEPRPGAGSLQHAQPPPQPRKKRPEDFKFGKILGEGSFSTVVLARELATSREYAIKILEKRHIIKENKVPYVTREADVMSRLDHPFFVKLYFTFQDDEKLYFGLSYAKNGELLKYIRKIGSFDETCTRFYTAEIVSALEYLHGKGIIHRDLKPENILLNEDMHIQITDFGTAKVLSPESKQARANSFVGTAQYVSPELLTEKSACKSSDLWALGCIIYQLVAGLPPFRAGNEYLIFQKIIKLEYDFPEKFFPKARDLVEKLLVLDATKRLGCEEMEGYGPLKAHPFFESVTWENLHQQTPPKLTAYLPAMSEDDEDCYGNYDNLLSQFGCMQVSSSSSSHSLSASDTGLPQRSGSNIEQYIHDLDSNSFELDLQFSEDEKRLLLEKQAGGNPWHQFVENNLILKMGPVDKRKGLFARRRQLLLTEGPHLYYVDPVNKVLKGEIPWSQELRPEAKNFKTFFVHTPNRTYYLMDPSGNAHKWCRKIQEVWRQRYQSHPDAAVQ
Method: (§1) C. Activation of the indicated forms of PDK1 by 56K-pHM and S6K-HM. PDK1 activity was measured using the peptide substrate (T308tide) in the presence of the indicated concentrations of 56K-pHM (closed circles) and S6K-HM (open circles) as described in the methods. Assays were performed in triplicate and similar results obtained in 2 separate experiments. The results are the average—SD for a single experiment.
(§2) The ability of wild type and mutant PDK1 to phosphorylate the synthetic peptide T308tide ([…] ([Biondi et al., 2000]) (SEQ ID NO:108) was carried out in 30 μl assays containing 100 ng of wild type or mutant PDK1, 50 mM Tris/HCl pH 7.5, 0.1% 13-mercaptoethanol, 10 mM MgCl2, 100 μM [32γ P]ATP (200 cpm/pmol), 0.5 μM microcystin-LR, 1 mM T308tide in the presence or absence of the indicated concentrations of the 56K-pHM peptide ([…](P)YVAPSV) (SEQ ID NO:104) or 56K-HM. peptide ([…]) (SEQ ID NO:105). After incubation for 10 min at 30° C., 25 μl of the resultant mixture was spotted into P81 phosphocellulose paper (2×2 cm) and the papers washed and analysed as described previously for assays of MAP kinase. Control assays were carried out in parallel in which either PDK1, or peptide substrate were omitted; these values were always less than 5% of the activity measured in the presence of these reagents. One Unit of PDK1 activity was defined as that amount required to catalyse the phosphorylation of 1 nmol of the T308tide in 1 min.

[2] = biological target: T2, wild type PDK1 (Homo sapiens, UniProt O15530); test: PDK1 catalytic activity towards T308tide, activation by peptides, wild type PDK1; assay type: biochemical; design: made in house; conditions: T308tide substrate
T2 sequence (O15530 1-556): T1 sequence (O15530 1-556 R131A) with A131R
Method: as §1
as §2, with “One Unit of PDK1 activity was defined as that amount required to catalyse the phosphorylation of 1 nmol of the T308tide in 1 min.” left out

[3] = biological target: T2, wild type PDK1; test: Surface plasmon resonance (BiaCore) binding of hydrophobic motif peptides, wild type PDK1; design: made in house; host or cells: human embryonic kidney 293 cells (pEBG2T vector); conditions: BiaCore
Method: Binding and activation of wild type and mutant forms of PDK1 to a phosphopeptide derived from the hydrophobic motif of S6K1. The binding of the wild type (wt) PDK1 and indicated mutants to a phosphopeptide comprising the hydrophobic motif of S6K1 (S6K-pHM: […]*YVAPSV, where T* indicates phospho-threonine, SEQ ID NO:104) was analysed by surface plasmon resonance as described in the Materials and Methods.
A. The sensor chip SA was coated with 12RUs of the biotinylated S6K-pHM peptide and the binding was analysed following injection of 270 nM wild type PDK1, PDK1 [T148A] and PDK1 [K76A]. […] (data not shown).
B. As in A. except that binding was analysed over a range of PDK1 concentrations (2-2150 nM). The response level at the steady state binding is plotted versus the log of the PDK1 concentration. The estimated Kd was obtained by fitting the data to a sigmoid curve using Kaleidagraph software.
Binding was analysed in a BiaCore 3000 system (BiaCore AB, Stevenage, UK). Biotinylated S6K-pHM (Biotin-C12-[…](P)YVAPSV) (SEQ ID NO:104) or the non-phosphorylated form of this peptide S6K-HM was bound to an streptavidin-coated Sensor chip (SA) (12 response units, RU). 30 μl of wild type or the indicated mutant GST-PDK1 were injected at a flow rate of 30 μl/min, in buffer HBS-P (10 mM HEPES pH 7.4, 0.15M NaCl, 0.005% (by vol) polysorbate-20) supplemented with 1 mM DTT. Specific interactions between 56K-pHM and PDK1 proteins were obtained between the concentration range of 2-2150 nM PDK1. Steady state binding was determined at each concentration. Dissociation of PDK1 from the phospho-peptide was monitored over a 1 min period. Regeneration of the sensor chip surface was performed with 1{tilde over (0)} μl injections of 0.05% SDS. […] (RUmax=435). For all PDK1 construct tested, the off rates for S6Kp-HM were high in comparison to those of PIFtide binding with the time taken for 50% dissociation to occur for 56K-pHM is 30s compared to 1000s for PIFtide.

How did the “activation of PDK1[R131A]” value ([1]; peptide 0.3 and 1 mM) turn out when `CC(C)C[C@H](NC(=O)[C@H](Cc1ccccc1)NC(=O)[C@@H](NC(=O)[C@H](CCC(N)=O)NC(=O)[C@H](CC(N)=O)NC(=O)[C@H](C)NC(=O)[C@H](CO)NC(=O)[C@H](CCC(=O)O)NC(=O)[C@@H](N)CO)C(C)C)C(=O)NCC(=O)N[C@@H](Cc1ccccc1)C(=O)N[C@H](C(=O)N[C@@H](Cc1ccc(O)cc1)C(=O)N[C@H](C(=O)N[C@@H](C)C(=O)N1CCC[C@H]1C(=O)N[C@@H](CO)C(=O)N[C@H](C(=O)O)C(C)C)C(C)C)[C@@H](C)OP(=O)(O)O` [S6K-pHM] (H-SESANQVFLGF[pT]YVAPSV-OH; N-terminus and C-terminus assumed) was run?
Its value is “only moderately further increased”.

And the “activation of PDK1[R131A]” value ([1]; peptide below 0.1 mM)?
The value was “not significantly activated”.

What about the “maximal activation of PDK1” value [2] of the same compound?
The value was 5 fold.

And the “time taken for 50% dissociation of PDK1 from peptide” value ([3]; all PDK1 constructs tested)?
Its value is 30 s.

What about the “lower affinity of wild type PDK1 for peptide in comparison to PIFtide” value ([3]; overall) of the same compound?
Its value is “approximately 100 fold”.
